Structures can show the parent of a compound that is named as a salt. Non-standard residues stand in square brackets, D forms with d. Residues, ends and D or L forms follow the SMILES beside them. No end group written: not given here. *: point of attachment. X2 = CC(C)(O)c1ccccc1CC[C@@H](SCC1(CC(=O)*)CC1)c1cccc(/C=C/c2ccc3ccc(Cl)cc3n2)c1; Dopa = N[C@@H](Cc1ccc(O)c(O)c1)C(=O)O; Hyp = O=C(O)[C@@H]1C[C@@H](O)CN1
How the values were obtained:
[1] = system: full thickness skin wound; experiment: Acute wound model I; type: in vivo, C57BL/6 mice; details: lower dose, Day 4
Description: 6-8 weeks old male C57BL/6 mice were supplied by Changzhou Cvens Experimental Animal Co. Ltd. Prior to any experiments being conducted, mice were housed under standardized conditions (at a constant temperature or 22±2° C., with alternating 12 hour periods of light and darkness), and were fed on a standard mouse diet with water, for about a week.
General anesthesia was induced using intraperitoneal 3% chloral hydrate (Sinopharm Chemical Reagent Co., Ltd.; 1 mL/10 g of body weight). The hair on the back was shaved by a baby hair shaver and depilated with cream. The skin area was wiped and sterilized with 75% alcohol twice.
EMS skin biopsy punch (Electron Microscopy Sciences, P.O. Box 550, 1560 Industry Road, Hatfield, Pa. 19440) with an 18 mm diameter was used to make a round wound on the midline of the back. Full thickness skin was removed, and the depth reached the fascia. The wounds left open without suture.
Different drugs were administrated topically at 50 μL/wound, once daily from Day 0 to Day 7. The model group was given same amount of normal saline.
Compound B was obtained as a powder from GL Biochem, and was prepared as described in Example 2 above). Ala-Lys-Pro-Ser-Tyr-Hyp-Hyp-Thr-DOPA-Lys (Compound 2; SEQ ID No: 4) was obtained as a powder from GL Biochem, and was prepared essentially as described in Example 2 above, but without coupling montelukast at the end. […]

[2] = system: xylene induced ear swelling; details: hydrogel 0.5 mg/g, 40 μL on right ear
Description: Essentially the same protocol to that described in Example 5 above was carried out on 15 healthy male BALB/c mice, using Compounds J (see Example 40 above) as test compound. The mice were randomly divided into 3 groups as described in Table 20 below, with 5 mice in each group.
All excipients were obtained from Sinopharm Chemical Reagent Co. Ltd. The gel was made up with water for injection.
Dexamethasone acetate cream (DEX cream; 5 mg of dexamethasone in 10 g of cream; Fuyuan Pharmaceutical Co. Ltd., Anhui, China) was used as a positive control. 40 μL of the various treatments drugs were applied to the right ear of each group.

[3] = system: bleomycin-induced lung fibrosis; experiment: Idiopathic pulmonary fibrosis (IPF) model in rats (bleomycin); type: in vivo, SD rats; details: score, 28 days
Description: 60 adult SD rats (30 male, 30 female) were purchased from Zhejiang Experimental Animal Center, China. Animals were housed at between 21 and 26° C. and at between 40 and 70% relative humidity with free access to food and water.
The rats were anaesthetized and placed on an operating table in the supine position, to expose the trachea. Bleomycin (5 mg/kg, Bleomycin Hydrochloride for Injection, Haizheng Pfizer Pharmaceutical Co., Ltd.) and saline solution were injected into the trachea through the gap between the tracheal cartilage rings.
The sham-operation group was given an equal volume of normal saline instead of bleomycin. The rats were lifted vertically immediately after administration and were rotated to allow bleomycin to evenly disperse. […]
After 28 days of administration, rats were anesthetized by intraperitoneal injection of chloral hydrate and then sacrificed. […] The lung wet weight was weighed, and the lung coefficient was calculated (lung wet weight/rat weight×1000) and are shown in Table 18 below. […]
The fixed lung tissue was embedded in paraffin and sequential 4 μm sections were stained with haematoxylin-eosin (HE) and modified Masson's trichrome. Fibrotic lung injury was assessed morphologically by semiquantitative parameters. All morphological changes were scored according to the severity of damages. […] No lesion was scored as 0. […]

[4] = system: ammonia induced cough; experiment: Antitussive experiment, ammonia induced cough method; type: in vivo, mice; details: 10 mg/kg intragastric
Description: 60 mice were randomly divided into 5 groups according to their body weight: CMC-Na negative control group, dextromethorphan hydrobromide positive control group and high, medium and low doses (of Compound A, Example 1) groups. Each group contained 12 mice, 6 males and 6 females.
The test drug was administered via atomization inhalation (0.15 mL/min) for 1 min, once daily for 5 days. The positive control drug was administered once daily by intragastric administration at 10 mg/kg for 5 days.
The mice were placed in an inverted beaker 1, 2, and 4 hours after the last drug administration (either Compound A or the positive control drug). 1 mL of aqueous ammonia (25.0 to 28.0%) was placed on top of a boiling water bath and was evaporated into the beaker. The mice were stimulated by ammonia vapor for a predetermined time of 63.1, 50.1, 39.8, 31.6, 25.1, 20.0, 15.9 or 12.6 seconds. The difference in the logarithm of two adjacent stimulating times was set at 0.1, and being 1.8, 1.7, 1.6, 1.5, 1.4, 1.3, 1.2 and 1.1. The mice were then quickly moved to a bell jar. The number of coughs within 1 minute was detected with a stethoscope. Typical coughs occurring three or more times in one minute are called ‘cough’ and those occurring less than three times in one minute are ‘cough free’.
The ammonia stimulation time for the next mouse was determined according to the principle of the sequential method, i.e. if the first mouse was ‘coughing’, the next mouse was stimulated for a shorter period of time. Conversely, if the first mouse was ‘coughless’, the next mouse was stimulated for a longer period of time.
The EDT50 was defined as the ammonia stimulating time at which half mice developed a “cough” and calculated by the equation: EDT50=lg^−1c/n (c equals the […], r is the number of animals in each stimulating time group, x is the logarithm of stimulation time and n was the number of animals in each group).
Where R1=(EDT50 in treatment group/EDT50 in control group)×100%, R>130% indicates an antitussive effect. R>150% indicates a strong antitussive effect.

[5] = system: full thickness skin wound; experiment: Acute wound model II; type: in vivo, C57BL/6 mice; details: topical once daily Day 0 to Day 7
Description: A similar experiment with essentially the same protocol to that described in Example 6 above was carried out on 6 to 8 week-old male C57BL/6 mice, EMS skin biopsy punch with a 12 mm diameter was used to make two round wounds on the midline of the back. The two circles were tangential to each other and the skin between the circles was cut along the upper and lower tangents. Scissors were used to trim the wound. The wound was an oval shape. […] The model group was given same amount of normal saline. [table]

[6] = biological target: T1, CysLTR1 (Homo sapiens, UniProt Q9Y271); experiment: In vitro CysLTR1 FLIPR antagonist test; type: cell-based; details: CYSLTR1/HEK293 cell line, Fluo-4 calcium assay
T1 construct: expressed in transfected cells; host or cells: HEK293
T1 sequence (Q9Y271 1-337): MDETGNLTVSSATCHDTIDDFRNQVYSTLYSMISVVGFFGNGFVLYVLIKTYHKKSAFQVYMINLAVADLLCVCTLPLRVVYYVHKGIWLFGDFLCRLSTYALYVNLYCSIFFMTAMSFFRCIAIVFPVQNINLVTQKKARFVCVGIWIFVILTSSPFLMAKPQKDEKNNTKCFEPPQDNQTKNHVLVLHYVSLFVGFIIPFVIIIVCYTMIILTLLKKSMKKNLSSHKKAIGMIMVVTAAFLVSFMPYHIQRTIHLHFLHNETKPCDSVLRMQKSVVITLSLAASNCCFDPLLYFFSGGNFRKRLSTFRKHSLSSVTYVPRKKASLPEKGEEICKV
Description: 10 different concentrations were tested in duplicate for each compound.
A CYSLTR1/HEK293 cell line was used. The cells were prepared and 20 μL of the cell suspension were added to the 384-well plates (20K/well; poly-D-Lysine protein coating plate, Greiner #781946). The plate was placed at 37° C. in a 5% CO2 incubator overnight.
A probenecid in FLIPR assay buffer was prepared from the relevant starter pack (Cat. no. F10471): A 250 mM stock solution of water-soluble probenecid was prepared by adding 1 mL of Fluo-4 Direct™ calcium assay buffer to 77 mg vials containing probenecid (Component B for Cat. nos. F10471). 10 mL of Fluo-4 Direct™ calcium assay buffer and 200 μL of the 250 mM probenecid stock solution was added to one bottle of Fluo-4 Direct™ calcium reagent (Component A). This 2× Fluo-4 Direct™ calcium reagent loading solution was sufficient for two microplates. The solution was vortexed allowed to sit for 5 minutes (protected from light), to ensure that the reagent was completely dissolved. The reagent was prepared fresh each day
All of the compounds were dissolved and serially diluted in Fluo-4 Direct™ calcium assay buffer (without probenecid). […] Fluorescence was measured using the instrument settings appropriate for excitation at 494 nm and emission at 516 nm.
The data were analysed using Prism (GraphPad Software, USA) and IC50s calculated for each compound.

Ala-Lys-Pro-Ser-Tyr-Hyp-Hyp-Thr-DOPA-Lys (AKPSY[Hyp][Hyp]T[Dopa]K; not fully specified; printed as Ala-Lys-Pro-Ser-Tyr-Hyp-Hyp-Thr-DOPA-Lys) [Compound 2]
Hyp content in wound tissue [1]: show effects at early stage

Montelukast-Ala-Lys-Pro-Ser-Tyr-Hyp-Hyp-Thr-Tyr-Hyp-Lys [Compound J]
edema caused by acute inflammation (ear swelling) [2]: very good effect on eliminating the edema caused by acute inflammation

Cc1ccc(=O)n(-c2ccccc2)c1 [pirfenidone]
Masson evaluation Mean ([3]; collagen deposition in pulmonary interstitium): 2.50 | HE evaluation Mean ([3]; sum of degree of fibrosis and inflammation): 5.50

COc1ccc2c(c1)[C@]13CCCC[C@@H]1[C@H](C2)N(C)CC3 [positive, dextromethorphan hydrobromide]
EDT50/s ([4]; 1 h after administration): 50.1 s | R1/% ([4]; 1 h after administration): 241.7% | EDT50/s ([4]; 2 h after administration): 44.7 s | R1/% ([4]; 2 h after administration): 207.3% | EDT50/s ([4]; 4 h after administration): 41.4 s | R1/% ([4]; 4 h after administration): 184.8%

Montelukast Styrene-Ala-Lys-Pro-pSer-Tyr-Hyp-Hyp-Thr-Tyr-Lys [Compound C]
unhealed wound rate [5]: comparable effects on promoting the wound healing

C[C@H](NC(=O)CC1(CS[C@H](CCc2ccccc2C(C)(C)O)c2cccc(/C=C/c3ccc4ccc(Cl)cc4n3)c2)CC1)C(=O)N[C@@H](CCCCN)C(=O)N1CCC[C@H]1C(=O)N[C@@H](CO)C(=O)N[C@@H](Cc1ccc(O)cc1)C(=O)N1C[C@H](O)C[C@H]1C(=O)N[C@H](C(=O)N[C@@H](Cc1ccc(O)cc1)C(=O)N1C[C@H](O)C[C@H]1C(=O)N[C@@H](CCCCN)C(=O)O)[C@@H](C)O [Compound G, Montelukast-Ala-Lys-Pro-Ser-Tyr-Hyp-Thr-Tyr-Hyp-Lys] (X2-AKPSY[Hyp]TY[Hyp]K-OH)
IC50 ([6]; repeat of Example 38): 99.5 nM

C=C(C)c1ccccc1CC[C@@H](SCC1(CC(=O)O)CC1)c1cccc(/C=C/c2ccc3ccc(Cl)cc3n2)c1 [montelukast styrene]
IC50 ([6]; Example 37): 159 nM

From patent publication US11680082B2, “Conjugates of montelukast and peptides” (ENLITISA (SHANGHAI) PHARMACEUTICAL CO., LTD, priority 2018, dated 2023)
